Converted amounts (≈) assume the structure as drawn.
Key:
[1] = system: LPS-induced NO production in RAW264.7 macrophages; test: LPS-induced NO production in macrophages (nitrite, Griess reaction); type: cell-based, murine; conditions: LPS 100 ng/mL, 24 h; for NO level: LPS alone 25.3 ± 3.0, control 2.5 ± 0.2; for IC50: Mus musculus, RAW264.7, non-linear regression, read-out: IC50 of inhibition of LPS-induced NO production
Method: (§1) A murine macrophage cell line, RAW264.7 (BCRC No. 60001), was purchased from the Bioresources Collection and Research Center (BCRC, Hsinchu, Taiwan) of the Food Industry Research and Development Institute (Hsinchu, Taiwan). Cells were cultured in plastic dishes containing Dulbecco’s Modified Eagle Medium (DMEM, Sigma, St. Louis, MO, USA) supplemented with 10% fetal bovine serum (FBS, Sigma) in a CO2 incubator (5% CO2 in air) at 37 °C and subcultured every 3 days at a dilution of 1:5 using 0.05% trypsin-0.02% EDTA in Ca^2+-, Mg^2+-free phosphate-buffered saline (DPBS).
NO production was indirectly assessed by measuring the nitrite levels in the cultured media and serum determined by a colorimetric method based on the Griess reaction. The cells were incubated with different concentrations of samples in the presence of LPS (100 ng/mL) at 37 °C for 24 h. Then, cells were dispensed into 96-well plates, and 100 μL of each supernatant was mixed with the same volume of Griess reagent (1% sulfanilamide, 0.1% naphthyl ethylenediamine dihydrochloride and 5% phosphoric acid) and incubated at room temperature for 10 min; the absorbance was measured at 540 nm with a Micro-Reader (Molecular Devices).
IC50 values were estimated using a non-linear regression algorithm (Sigma Plot 8.0; SPSS Inc., Chicago, IL, USA). Statistical evaluation was carried out by one-way analysis of variance (ANOVA, followed by Scheffe’s multiple range tests).

[2] = Cell viability (MTT) in the presence of LPS; type: cell-based, murine; conditions: mouse, RAW264.7 macrophage cells, 100 ng/mL LPS, mean ± SD, read-out: Cell viability (% of control)
Method: as §1
Cells (2 × 10^5) were cultured in 96-well plate containing DMEM supplemented with 10% FBS for 1 day to become nearly confluent. Then, cells were cultured with compounds 1–5 in the presence of 100 ng/mL LPS (lipopolysaccharide) (Eschericha coli 026:B6; Sigma-Aldrich, St. Louis, Mo) for 24 h. After that, the cells were washed twice with DPBS and incubated with 100 μL of 0.5 mg/mL MTT for 2 h at 37 °C testing for cell viability. The medium was then discarded, and 100 μL dimethyl sulfoxide (DMSO) was added. After 30-min incubation, absorbance at 570 nm was read using a microplate reader (Molecular Devices, Sunnyvale, CA, USA).

IC50 [1] | SMILES | NO level ([1]; dose 0.312 μg/mL) | NO level ([1]; dose 0.625 μg/mL) | NO level ([1]; dose 1.25 μg/mL) | NO level ([1]; dose 2.5 μg/mL) | viability at 24 h, 0.312 μg/mL [2] | viability at 24 h, 0.625 μg/mL [2] | viability at 24 h, 1.25 μg/mL [2] | viability at 24 h, 2.5 μg/mL [2] | viability at 24 h, 5 μg/mL [2] | NO level ([1]; dose 25 μg/mL) | viability at 24 h, 25 μg/mL [2] | viability at 24 h, 50 μg/mL [2] | further results
1.8 ± 0.2 µg/mL (≈ 8.1 µM) | C=C(C)c1c(OC)c(O)c(C)c2c1OCO2 [Compound 1, 3-isopropenyl-2-methoxy-6-methyl-4,5-methylenedioxyphenol] | 14.5 ± 2.2 µM | 14.1 ± 1.5 µM | 13.0 ± 1.5 µM | 12.0 ± 1.7 µM | 92 ± 3.3% | 91 ± 3.7% | 90.4 ± 2.4% | 87.3 ± 2.3% | 65.5 ± 1.7% |  |  |  | 
0.8 ± 0.3 µg/mL (≈ 4.39 µM) | COc1c(C)cc(O)c2c1OCO2 [Compound 5, 2,3-methylenedioxy-4-methoxy-5-methylphenol] | 15.2 ± 1.4 µM | 12.8 ± 1.9 µM | 12.1 ± 1.6 µM | 10.4 ± 1.3 µM | 93.8 ± 2.9% | 88.5 ± 1.5% | 85 ± 2.9% | 83.8 ± 1.9% | 82.4 ± 2.7% |  |  |  | NO level ([1]; dose 5 μg/mL): 10.0 ± 2.2 µM
18.8 ± 0.6 µg/mL (≈ 51.9 µM) | COc1c(C)c(-c2c(C)c(OC)c(O)c3c2OCO3)c2c(c1O)OCO2 [Compound 3, 4,4′-dihydroxy-3,3′-dimethoxy-2,2′-dimethyl-5,6,5′,6′-bimethylenedioxybiphenyl] |  |  |  |  |  |  |  |  |  | 12.1 ± 0.6 µM | 91 ± 7.7% | 64.8 ± 2.2% | NO level ([1]; dose 3.12 μg/mL): 13.7 ± 0.1 µM; NO level ([1]; dose 6.25 μg/mL): 13.4 ± 0.4 µM; NO level ([1]; dose 12.5 μg/mL): 13.2 ± 0.1 µM; viability at 24 h, 3.12 μg/mL ([2]; dose 3.12 μg/mL): 95.1 ± 2.9%; viability at 24 h, 6.25 μg/mL ([2]; dose 6.25 μg/mL): 93.1 ± 2.7%; viability at 24 h, 12.5 μg/mL ([2]; dose 12.5 μg/mL): 93 ± 2.6%

Continued, molecule first:

SMILES | IC50 [1] | NO level ([1]; dose 0.312 μg/mL) | NO level ([1]; dose 0.625 μg/mL) | NO level ([1]; dose 1.25 μg/mL) | NO level ([1]; dose 2.5 μg/mL) | viability at 24 h, 0.312 μg/mL [2] | viability at 24 h, 0.625 μg/mL [2] | viability at 24 h, 1.25 μg/mL [2] | viability at 24 h, 2.5 μg/mL [2] | viability at 24 h, 5 μg/mL [2] | NO level ([1]; dose 25 μg/mL) | viability at 24 h, 25 μg/mL [2] | viability at 24 h, 50 μg/mL [2] | further results
COc1cc(C)c(OC)c(O)c1OC [Compound 4, 2,3,6-trimethoxy-5-methylphenol] |  | 20.6 ± 1.2 µM | 19.4 ± 2.0 µM | 18.3 ± 0.3 µM | 13.6 ± 0.6 µM | 97 ± 1.1% | 96.2 ± 2.2% | 95 ± 2.1% | 94.6 ± 1.6% | 69.3 ± 2.1% |  |  |  | 
COc1ccc2c(c1)c(CC(=O)O)c(C)n2C(=O)c1ccc(Cl)cc1 [Indomethacin, indomethacin, reference compound] |  |  |  |  |  |  |  |  |  |  | 19.2 ± 0.6 µM | 96.2 ± 1.1% | 94.8 ± 1.3% | NO level ([1]; dose 50 μg/mL): 14.3 ± 0.8 µM
COc1c(C)cc(-c2c(O)c(C)c(OC)c3c2OCO3)c2c1OCO2 [Compound 2, 2-hydroxy-4,4′-dimethoxy-3,3′-dimethyl-5,6,5′,6′-bimethylenedioxybiphenyl] |  | 16.4 ± 2.4 µM | 16.1 ± 1.3 µM | 15.7 ± 2.0 µM | 15.5 ± 1.9 µM | 98 ± 1.5% | 96.6 ± 7.6% | 96.6 ± 2.2% | 92.7 ± 1.3% | 71.4 ± 2.2% |  |  |  | 

Reference: publication PMC3634465, “New Anti-Inflammatory Aromatic Components from Antrodia camphorata” (International Journal of Molecular Sciences, 2013)
